The values that follow come from patent US20060165670A1, “Synbiotic combination” (priority 2003, published 2006).

Experiment [1] deals with yeasts. Kind of experiment: Continuous culture chemostat with faecal inocula and antimicrobials. Format: cell-based. The following applies: 1 gl^−1 in medium, compared to control chemostats. The method, then:
(§1) (i) Continuous culture system: Three chemostats are set up in a parallel; each is maintained under nitrogen gas, at 37° C., pH 6.5 and a dilution rate of 0.066 h^−1. These conditions are set to resemble conditions typically found in the distal region of the human colon. The chemostats are fed with a control growth medium which comprised (gl^−1 in distilled water): yeast extract 2, peptone water 2, NaCl 0.1, K2HPO4 0.04, KH2PO4 0.04, MgSO4.7H2O 0.01, CaCl2.H2O 0.01, NaHCO3 2, Tween 80 2, hemin 0.05, Vitamin K1 0.01, cysteine.HCl 0.5, bile salts 0.5, glucose 0.4, starch 3, pectin 2 and arabinogalactan 1. The medium is autoclaved at 121° C. for 30 min and, whilst still hot, placed under nitrogen gas. After the medium has cooled, 1 gl^−1 of filter sterilised tetracycline or 1 gl^−1 of filter sterilised nystatin is aseptically added to the medium reservoir. Control chemostats with no antimicrobials added are also run. […]
(§2) (iii) Microbial culture techniques: A sample is taken from each fecal slurry used as inocula and 1 ml samples are also removed from each chemostat when the fermentation system has reached steady state (after 164 h). […] After 24-48 h of Incubation aerobic colonies are counted and after 48-72 h of incubation anaerobic plates are enumerated. […]

In experiment [2] the test system is Lactobacilli. Described as above. Format: cell-based. The following applies: 1 gl^−1 in medium. As for the experimental part:
as §1, §2

`C[C@@H]1[C@H](O)[C@@H](C)/C=C/C=C/CC/C=C/C=C/C=C/C=C/C(O[C@H]2O[C@H](C)[C@@H](O)[C@H](N)[C@@H]2O)CC2O[C@](O)(CC(O)C(O)CCC(O)CC(O)CC(O)CC(=O)O[C@H]1C)CC(O)C2C(=O)O` (some centres unmarked) [nystatin]: the effect on yeasts result in experiment [1] is given as “yeasts are inhibited”. Also, the effect on lactobacilli result in experiment [2] is recorded as “reduction in lactobacilli”.
